Measured values reported in patent publication US9511010B2, “Compounds useful in the treatment and/or care of the skin, hair and/or mucous membranes and their cosmetic or pharmaceutical compositions” (Lubrizol Advanced Materials, Inc., priority 2012, dated 2016).

Tests used:
[1] = system: HEKa primary keratinocytes; assay: Host cell reactivation (HCR) assay, activation of DNA repair in primary keratinocytes; format: cell-based, human; settings: 24 hours, basal = 100
Method: The host cell reactivation (HCR) assay was used in HEKa primary keratinocytes to evaluate the capacity of the peptides of the invention to repair the damage to the DNA in a biologically functional way. 40,000 cells per well were seeded and they were co-transfected with a control plasmid which constitutively expresses the Firefly luciferase gene (pGL3), previously damaged by UVC, and with an undamaged plasmid which constitutively expresses the Renilla luciferase gene (vector pRluc-N1(h)).
Subsequently the cells were incubated with the compounds of the invention at 0.025 mg/mL and 0.5 mg/mL in EpiLife medium for 24 hours, after which the luminescence due to the activity of the Firefly and Renilla luciferases was measured using the Dual-Go Luciferase Assay System kit following the manufacturer's instructions. The carrier in which the compounds of the invention (EpiLife medium) were dissolved was used as a negative control. The activation percentage of the DNA repair for each sample was calculated standardizing the luminescence values of the Firefly luciferase with regard to the Renilla luciferase, subsequently standardizing with regard to the values of the negative control.
Each experiment was carried out three times in 3 independent experiments.

[2] = system: senescence-associated β-galactosidase (SA-β-Gal) in HDFa cells; assay: Reduction of cell senescence in human fibroblasts (SA-β-Gal histochemical detection); format: cell-based; settings: for Proportion of positive SA-β-gal cells: 24 hours, HDF, control 27.28
Method: A widely used assay to evaluate cell senescence is histochemical detection of the activity, of the β-galactosidase, called SA-β-Gal. The activity of the β-galactosidase is derived from the increase in the lysosomal content of senescent cells, which enables the detection of the lysosomal β-galactosidase at pH 6.0. The β-galactosidase is considered a marker of senescence both in vitro and in vivo.
With this objective, HDFa cells from phase 4 of a person were seeded in 96-well plates at 10,000 cells/well in culture medium 106 supplemented with 2% LSGS. After 24 hours the culture medium was removed and the cells were treated with 0.025 mg/mL and 0.01 mg/mL of Ac-L-Tyr-L-Glu-L-Lys-L-Leu-L-Gln-L-Val-NH2 (Ac-SEQ ID NO:22-NH2) in culture medium 106 for another 24 hours at 37° C. and humidified air with 5% CO2.
As a positive control of cell senescence (old fibroblasts) HDFa from phase […] of a person were used treated with culture medium; as a negative control of cell senescence (juvenile fibroblasts) HDFa from phase 4 were used from a person treated with culture medium.
After the incubation period the activity of the senescence-associated β-galactosidase (SA-β-Gal) was determined with the Senescence Cells Histochemical Kit.

[3] = system: Adult human epidermal keratinocytes (HEKa); assay: Profile of the gene expression of human epidermal keratinocytes (microarray); format: cell-based; settings: 0.1 mg/ml, 24 hours, vs untreated cells
Method: Adult human epidermal keratinocytes (HEKa) were seeded (15×10^4 cells/vial cells/vial T25 cm^2), and were incubated in complete Epilife medium for 7 days at 37° C. in an atmosphere with 5% CO2. After the incubation, the cells were treated for 24 hours at 37° C. in an atmosphere with 5% CO2 with 0.1 mg/ml of the compound Ac-L-Tyr-L-Glu-L-Lys-L-Leu-L-Gln-L-Val-NH2 (Ac-SEQ ID NO:22-NH2) in complete Epilife medium or in complete Epilife medium as a negative control. The incubations and the treatments were carried out in duplicate for each condition.
24 hours after the treatments, the cells were homogenized and the RNA was extracted and purified from each replica and each condition by means of the RNeasyPlus Mini kit by Qiagen. Briefly, RNases were inactivated from cells lysates and samples were passed through special RNA binding columns to eliminate contaminants and impurities and after several microcentrifugation washes, the purified RNA was eluted with 50 μl of ultrapure water. The purity, integrity and concentration of the RNA obtained was evaluated by means of spectrophotometry (Nanodrop) and with a bioanalyzer (Agilent Bioanalyzer).
The marking of the purified RNA was carried out as was the hybridization of the samples in a human gene expression microarray (ASurePrint G3, Agilent). The normalized values obtained with the treatment were compared with the normalized values obtained with the negative control to obtain genes with differential expression. Next, a parametric analysis of the data was carried out by means of the Bioconductor software. Then, the values obtained were evaluated by means of GSEA (Gene Set Analysis Enrichment) to group the genes with differential expression in terms of Gene Ontology. Biological Routes and most significant pathways with a False Discovery Rate (FDR) lower than 25% were selected.

Ac-YEKLQV-NH2 [Ac-SEQ ID NO: 22-NH2, Ac-L-Tyr-L-Glu-L-Lys-L-Leu-L-Gln-L-Val-NH2]
Activation Average (%) of DNA repair, HCR assay ([1]; 0.025 mg/mL): 203%
Activation Average (%) of DNA repair, HCR assay ([1]; 0.5 mg/mL): 272%
Proportion of positive SA-β-gal cells ([2]; 0.01 mg/mL): 7.02
Proportion of positive SA-β-gal cells ([2]; 0.025 mg/mL): 16.90
Effect on proportion of cells containing β-galactosidase (in words) ([2]; HDFa): reduced the proportion of cells containing β-galactosidase
% Expression induction, ACD ([3]; gene ACD, LONGEVITY, TELOMERE MAINTENANCE AND PROTECTION): 10.76%
% Expression induction, AIF1 ([3]; gene AIF1, INFLAMMATION, ANTI-INFLAMMATORY RESPONSE): 19.02%
% Expression induction, ANXA1 ([3]; gene ANXA1, INFLAMMATION, ANTI-INFLAMMATORY RESPONSE): 8.22%
% Expression induction, ANXA4 ([3]; gene ANXA4, INFLAMMATION, ANTI-INFLAMMATORY RESPONSE): 17.69%
% Expression induction, ANXA5 ([3]; gene ANXA5, INFLAMMATION, ANTI-INFLAMMATORY RESPONSE): 22.32%
% Expression induction, ATM ([3]; gene ATM, CELL CYCLE): 48.53%
% Expression induction, ATRX ([3]; gene ATRX, HELICASE ACTIVITY and ATPase ACTIVITY): 48.65%
% Expression induction, BAG4 ([3]; gene BAG4, APOPTOSIS INHIBITION): 32.42%
% Expression induction, BAX ([3]; gene BAX, APOPTOSIS INHIBITION): −60.73%
% Expression induction, BCL2 ([3]; gene BCL2, APOPTOSIS INHIBITION): 59.91%
% Expression induction, BCL2L2 ([3]; gene BCL2L2, APOPTOSIS INHIBITION): 32.49%
% Expression induction, BIRC3 ([3]; gene BIRC3, APOPTOSIS INHIBITION): 16.84%
% Expression induction, BIRC6 ([3]; gene BIRC6, APOPTOSIS INHIBITION): 73.14%
% Expression induction, BNIP2 ([3]; gene BNIP2, APOPTOSIS INHIBITION): 30.68%
% Expression induction, BNIP3L ([3]; gene BNIP3L, APOPTOSIS INHIBITION): 31.39%
% Expression induction, CASP3 ([3]; gene CASP3, APOPTOSIS ACTIVATION): 31.18%
% Expression induction, CDK7 ([3]; gene CDK7, DNA repair, Protein DNA Complex Assembly): 14.31%
% Expression induction, CHD1 ([3]; gene CHD1, HELICASE ACTIVITY and ATPase ACTIVITY): 40.46%
% Expression induction, CHD2 ([3]; gene CHD2, HELICASE ACTIVITY and ATPase ACTIVITY): 42.59%
% Expression induction, DDX1 ([3]; gene DDX1, HELICASE ACTIVITY and ATPase ACTIVITY): 26.92%
% Expression induction, DDX10 ([3]; gene DDX10, HELICASE ACTIVITY and ATPase ACTIVITY): 27.49%
% Expression induction, DDX25 ([3]; gene DDX25, HELICASE ACTIVITY and ATPase ACTIVITY): 16.24%
% Expression induction, ERCC6 ([3]; gene ERCC6, HELICASE ACTIVITY and ATPase ACTIVITY): 74.50%
% Expression induction, ERCC8 ([3]; gene ERCC8, DNA repair, Protein DNA Complex Assembly): 8.90%
% Expression induction, FAS ([3]; gene FAS, APOPTOSIS INHIBITION): −15.36%
% Expression induction, IL6 ([3]; gene IL6, INFLAMMATION, ANTI-INFLAMMATORY RESPONSE): −26.30%
% Expression induction, MAPK8 ([3]; gene MAPK8, APOPTOSIS INHIBITION): −33.72%
% Expression induction, MCL1 ([3]; gene MCL1, APOPTOSIS ACTIVATION): −17.76%
% Expression induction, MED4 ([3]; gene MED4, DNA repair, Protein DNA Complex Assembly): 28.80%
% Expression induction, MED13 ([3]; gene MED13, DNA repair, Protein DNA Complex Assembly): 56.75%
% Expression induction, MED14 ([3]; gene MED14, DNA repair, Protein DNA Complex Assembly): 32.54%
% Expression induction, MED17 ([3]; gene MED17, DNA repair, Protein DNA Complex Assembly): 46.25%
% Expression induction, MNAT1 ([3]; gene MNAT1, DNA repair, Protein DNA Complex Assembly): 17.84%
% Expression induction, MSH4 ([3]; gene MSH4, CELL CYCLE): 33.28%
% Expression induction, MYC ([3]; gene MYC, APOPTOSIS ACTIVATION): 41.70%
% Expression induction, NLRP3 ([3]; gene NLRP3, INFLAMMATION, ANTI-INFLAMMATORY RESPONSE): 36.49%
% Expression induction, NLRP12 ([3]; gene NLRP12, INFLAMMATION, ANTI-INFLAMMATORY RESPONSE): 39.96%
% Expression induction, PAPD7 ([3]; gene PAPD7, DNA POLYMERASE ACTIVITY): 65.27%
% Expression induction, POLA1 ([3]; gene POLA1, DNA POLYMERASE ACTIVITY): 29.28%
% Expression induction, POLD4 ([3]; gene POLD4, DNA POLYMERASE ACTIVITY): 31.74%
% Expression induction, POLH ([3]; gene POLH, DNA POLYMERASE ACTIVITY): 28.96%
% Expression induction, PTEN ([3]; gene PTEN, other genes involved in LONGEVITY): 26.04%
% Expression induction, RAD17 ([3]; gene RAD17, CELL CYCLE): 0.21%
% Expression induction, RAD21 ([3]; gene RAD21, CELL CYCLE): 18.22%
% Expression induction, RAD50 ([3]; gene RAD50, CELL CYCLE): 37.66%
% Expression induction, RAD54B ([3]; gene RAD54B, CELL CYCLE): 26.20%
% Expression induction, SETX ([3]; gene SETX, HELICASE ACTIVITY and ATPase ACTIVITY): 65.33%
% Expression induction, SH3GLB1 ([3]; gene SH3GLB1, APOPTOSIS ACTIVATION): 52.57%
% Expression induction, SMARCA1 ([3]; gene SMARCA1, HELICASE ACTIVITY and ATPase ACTIVITY): 29.62%
% Expression induction, SOCS2 ([3]; gene SOCS2, INFLAMMATION, ANTI-INFLAMMATORY RESPONSE): 56.13%
% Expression induction, TAF1 ([3]; gene TAF1, DNA repair, Protein DNA Complex Assembly): 65.00%
% Expression induction, TAF2 ([3]; gene TAF2, DNA repair, Protein DNA Complex Assembly): 25.12%
% Expression induction, TAF5 ([3]; gene TAF5, DNA repair, Protein DNA Complex Assembly): 8.18%
% Expression induction, TAX1BP1 ([3]; gene TAX1BP1, APOPTOSIS INHIBITION): 19.23%
% Expression induction, TEP1 ([3]; gene TEP1, LONGEVITY, TELOMERE MAINTENANCE AND PROTECTION): 38.49%
% Expression induction, TERF1 ([3]; gene TERF1, LONGEVITY, TELOMERE MAINTENANCE AND PROTECTION): 7.38%
% Expression induction, TERF2IP ([3]; gene TERF2IP, LONGEVITY, TELOMERE MAINTENANCE AND PROTECTION): 21.63%
% Expression induction, TINF2 ([3]; gene TINF2, LONGEVITY, TELOMERE MAINTENANCE AND PROTECTION): 13.37%
% Expression induction, TP53BP2 ([3]; gene TP53BP2, APOPTOSIS ACTIVATION): 22.34%
% Expression induction, WRN ([3]; gene WRN, HELICASE ACTIVITY and ATPase ACTIVITY): 35.25%
% Expression induction, XIAP ([3]; gene XIAP, APOPTOSIS INHIBITION): 51.98%
% Expression induction, XRCC2 ([3]; gene XRCC2, CELL CYCLE): 24.95%
